Our source for the AC50 values is ChEMBL document CHEMBL5291721, “A preclinical secondary pharmacology resource illuminates target-adverse drug reaction associations of marketed drugs” (Nat Commun, 2023).

One test deals with Cannabinoid receptor 1 (Homo sapiens, UniProt P21554). Type of test: functional, cell-based.
The next test has as its target Histamine H1 receptor (Homo sapiens, UniProt P35367).
Test [1] concerns the target T1, Alpha-1A adrenergic receptor (Homo sapiens, UniProt P35348).
T1 sequence (P35348 whole entry): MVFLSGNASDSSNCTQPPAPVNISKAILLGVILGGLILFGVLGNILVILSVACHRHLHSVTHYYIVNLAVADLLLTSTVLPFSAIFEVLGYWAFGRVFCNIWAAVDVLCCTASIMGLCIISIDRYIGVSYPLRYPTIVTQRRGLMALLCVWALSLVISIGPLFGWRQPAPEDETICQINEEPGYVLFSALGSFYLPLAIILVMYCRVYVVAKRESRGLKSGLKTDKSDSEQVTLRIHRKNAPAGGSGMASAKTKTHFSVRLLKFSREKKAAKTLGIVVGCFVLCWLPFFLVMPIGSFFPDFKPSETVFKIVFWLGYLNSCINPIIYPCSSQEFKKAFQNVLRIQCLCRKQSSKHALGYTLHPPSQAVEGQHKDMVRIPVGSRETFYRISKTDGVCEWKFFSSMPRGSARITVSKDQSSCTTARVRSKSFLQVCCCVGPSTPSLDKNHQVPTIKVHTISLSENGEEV
The format is functional, cell-based.

For test [2], the target named is Beta-1 adrenergic receptor (Homo sapiens, UniProt P08588). The format is functional.
Chain of Beta-1 adrenergic receptor (P08588 whole entry): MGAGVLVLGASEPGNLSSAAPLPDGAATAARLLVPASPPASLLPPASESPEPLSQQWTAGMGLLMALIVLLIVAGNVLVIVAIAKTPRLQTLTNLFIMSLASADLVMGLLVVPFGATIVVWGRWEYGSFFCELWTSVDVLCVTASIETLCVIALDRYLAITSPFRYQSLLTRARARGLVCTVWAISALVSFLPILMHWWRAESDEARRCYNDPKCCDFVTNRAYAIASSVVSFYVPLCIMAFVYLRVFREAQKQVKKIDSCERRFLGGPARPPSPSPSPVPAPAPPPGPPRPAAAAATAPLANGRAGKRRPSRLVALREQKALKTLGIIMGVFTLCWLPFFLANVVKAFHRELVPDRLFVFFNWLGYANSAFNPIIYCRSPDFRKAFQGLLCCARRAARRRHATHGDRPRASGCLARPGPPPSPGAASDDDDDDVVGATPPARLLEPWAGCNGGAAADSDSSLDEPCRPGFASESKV
Test [3] concerns the target T2, Alpha-2A adrenergic receptor (Homo sapiens, UniProt P08913).
T2 sequence (P08913 whole entry): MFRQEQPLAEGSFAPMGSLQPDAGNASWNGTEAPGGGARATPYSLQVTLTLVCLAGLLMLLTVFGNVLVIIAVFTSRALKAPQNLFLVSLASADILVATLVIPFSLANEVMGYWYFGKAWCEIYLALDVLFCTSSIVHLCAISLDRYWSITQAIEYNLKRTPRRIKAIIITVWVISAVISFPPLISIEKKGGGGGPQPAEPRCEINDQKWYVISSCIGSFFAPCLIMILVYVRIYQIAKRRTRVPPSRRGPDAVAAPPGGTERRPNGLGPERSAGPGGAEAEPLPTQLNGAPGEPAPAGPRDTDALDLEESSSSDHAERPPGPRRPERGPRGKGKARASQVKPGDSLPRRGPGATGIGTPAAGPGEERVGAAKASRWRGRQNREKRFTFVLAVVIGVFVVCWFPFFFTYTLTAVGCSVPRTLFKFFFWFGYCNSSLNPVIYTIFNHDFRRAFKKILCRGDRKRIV
The format is functional, cell-based.

In the next test the target is T3, Glucocorticoid receptor (Homo sapiens, UniProt P04150).
T3 sequence (P04150 whole entry): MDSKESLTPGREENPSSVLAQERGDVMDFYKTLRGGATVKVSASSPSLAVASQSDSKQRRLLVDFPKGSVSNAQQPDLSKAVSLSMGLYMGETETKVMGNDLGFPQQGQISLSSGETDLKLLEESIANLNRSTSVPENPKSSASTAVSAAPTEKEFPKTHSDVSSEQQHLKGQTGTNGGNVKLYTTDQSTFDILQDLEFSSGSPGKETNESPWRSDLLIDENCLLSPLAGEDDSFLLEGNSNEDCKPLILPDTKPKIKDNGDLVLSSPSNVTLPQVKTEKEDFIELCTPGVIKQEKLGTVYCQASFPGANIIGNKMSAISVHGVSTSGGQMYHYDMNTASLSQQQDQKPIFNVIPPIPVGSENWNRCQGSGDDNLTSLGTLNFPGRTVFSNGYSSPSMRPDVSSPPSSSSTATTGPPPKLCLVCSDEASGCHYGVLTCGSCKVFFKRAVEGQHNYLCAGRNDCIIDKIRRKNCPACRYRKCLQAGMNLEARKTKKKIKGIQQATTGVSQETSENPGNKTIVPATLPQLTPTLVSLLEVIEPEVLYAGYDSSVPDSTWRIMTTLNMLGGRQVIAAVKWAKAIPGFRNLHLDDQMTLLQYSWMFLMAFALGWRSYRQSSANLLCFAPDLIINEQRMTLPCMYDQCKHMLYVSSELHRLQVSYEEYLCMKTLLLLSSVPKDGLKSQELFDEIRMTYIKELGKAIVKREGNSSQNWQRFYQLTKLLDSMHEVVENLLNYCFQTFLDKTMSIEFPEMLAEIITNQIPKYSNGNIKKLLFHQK

SMILES strings stand for the structures. Values joined by “and” are separate entries in the source; they are usually repeats but may differ in a detail not shown here. Identical values can stand only once.
Also: assay procedure not described here.

Chain of Cannabinoid receptor 1 (P21554 whole entry): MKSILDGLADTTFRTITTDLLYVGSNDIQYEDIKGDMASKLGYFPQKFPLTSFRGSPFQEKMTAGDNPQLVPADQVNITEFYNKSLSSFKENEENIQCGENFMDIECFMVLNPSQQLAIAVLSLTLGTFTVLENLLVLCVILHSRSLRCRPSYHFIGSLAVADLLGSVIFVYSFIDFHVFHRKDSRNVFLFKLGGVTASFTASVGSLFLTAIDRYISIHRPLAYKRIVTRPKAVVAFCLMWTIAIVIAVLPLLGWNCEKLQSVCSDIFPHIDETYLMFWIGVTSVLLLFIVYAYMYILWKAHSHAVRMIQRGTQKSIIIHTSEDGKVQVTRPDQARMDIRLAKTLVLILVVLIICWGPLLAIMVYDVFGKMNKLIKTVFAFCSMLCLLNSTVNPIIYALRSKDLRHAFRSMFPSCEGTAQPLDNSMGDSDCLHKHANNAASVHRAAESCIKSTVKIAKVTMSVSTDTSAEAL
Chain of Histamine H1 receptor (P35367 whole entry): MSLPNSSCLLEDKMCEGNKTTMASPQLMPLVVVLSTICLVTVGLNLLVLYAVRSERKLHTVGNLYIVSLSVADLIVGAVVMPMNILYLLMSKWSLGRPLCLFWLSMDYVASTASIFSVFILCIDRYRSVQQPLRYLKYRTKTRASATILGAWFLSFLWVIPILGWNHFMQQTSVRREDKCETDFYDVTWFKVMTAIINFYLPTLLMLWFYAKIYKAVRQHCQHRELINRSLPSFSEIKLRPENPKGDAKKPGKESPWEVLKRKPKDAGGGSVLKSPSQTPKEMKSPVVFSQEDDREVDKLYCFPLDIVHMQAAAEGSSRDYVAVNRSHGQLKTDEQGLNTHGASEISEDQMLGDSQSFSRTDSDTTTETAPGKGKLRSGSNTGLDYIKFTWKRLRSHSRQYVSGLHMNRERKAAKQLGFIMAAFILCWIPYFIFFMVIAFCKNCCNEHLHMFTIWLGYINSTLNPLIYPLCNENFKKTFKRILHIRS

Consider `CC(=O)N[C@@H](CS)C(=O)O` [ACETYLCYSTEINE], for which the concentration at half-maximal activity (AC50) (at Cannabinoid receptor 1; on Histamine H1 receptor; in test [1]; in test [2]; in test [3]; on Glucocorticoid receptor) was above 30 µM throughout.

For the compound `CCCCC(=O)O[C@]1(C(=O)CO)[C@@H](C)C[C@H]2[C@@H]3CCC4=CC(=O)C=C[C@]4(C)[C@@]3(F)[C@@H](O)C[C@@]21C` [BETAMETHASONE VALERATE], the AC50 on Cannabinoid receptor 1 was above 30 µM; on Histamine H1 receptor, above 10 µM; in test [1], above 30 µM; in test [2], above 10 µM; in test [3], above 10 µM; on Glucocorticoid receptor, 0.004 µM.

`CCC(C)C1(CC)C(=O)NC(=O)NC1=O` (configuration not stated) [BUTABARBITAL]: the AC50 (at Cannabinoid receptor 1; at Histamine H1 receptor; in test [1]; in test [2]; in test [3]; at Glucocorticoid receptor) was above 30 µM each time.

In the case of `COCC1=C(C(=O)O)N2C(=O)[C@@H](NC(=O)/C(=N\OC)c3csc(N)n3)[C@H]2SC1` [CEFPODOXIME], the concentration at half-maximal activity (AC50) (at Cannabinoid receptor 1; at Histamine H1 receptor; in test [1]; in test [2]; in test [3]; on Glucocorticoid receptor) was above 30 µM each time.

Take `COc1cc(N)c(Cl)cc1C(=O)NC1CCN(Cc2ccccc2)CC1` [CLEBOPRIDE]: the concentration at half-maximal activity (AC50) at Cannabinoid receptor 1 was above 30 µM; on Histamine H1 receptor, above 30 µM; in test [1] it was 14 µM; in test [3], 14 µM; at Glucocorticoid receptor, above 30 µM.

For `C[C@]12CCC(=O)C(O)=C1CC[C@@H]1[C@@H]2CC[C@]2(C)C(=O)CC[C@@H]12` [FORMESTANE], the AC50 (at Cannabinoid receptor 1; on Histamine H1 receptor; in test [1]; in test [2]; in test [3]; at Glucocorticoid receptor) was above 30 µM throughout.

Consider `C[C@]12CC[C@@H]3c4ccc(O)cc4C[C@@H](CCCCCCCCC[S+]([O-])CCCC(F)(F)C(F)(F)F)[C@H]3[C@@H]1CC[C@@H]2O` (some centres not stated) [FULVESTRANT], for which the AC50 at Cannabinoid receptor 1 is above 30 µM; on Histamine H1 receptor, above 30 µM; in test [1], above 30 µM; in test [2] it was above 30 µM; in test [3], above 30 µM; on Glucocorticoid receptor it was 1.1 µM.

With `Oc1ccc2c(c1)CC[C@H](c1ccccc1)[C@@H]2c1ccc(OCCN2CCCC2)cc1` [LASOFOXIFENE], the AC50 at Cannabinoid receptor 1 was above 30 µM; at Histamine H1 receptor, 20 µM; in test [1], 12 µM; in test [2], 10 µM; at Glucocorticoid receptor it was 9.3 µM.

As for `C[C@H](Cc1ccc(O)c(O)c1)[C@@H](C)Cc1ccc(O)c(O)c1` [MASOPROCOL], the half-maximal activity concentration (AC50) at Cannabinoid receptor 1 is above 30 µM; on Histamine H1 receptor, above 30 µM; in test [1], 8.4 µM and > 30 µM (2×); in test [2], above 30 µM; in test [3] it was above 10 µM; at Glucocorticoid receptor, 8.7 µM.

As to `OC1(c2ccc(Cl)cc2)c2ccccc2C2=NCCN21` (configuration not stated) [MAZINDOL], the AC50 on Cannabinoid receptor 1 was above 30 µM; on Histamine H1 receptor it was 7.5 µM; in test [1], above 30 µM; in test [2], above 30 µM; in test [3], above 30 µM; on Glucocorticoid receptor it was above 30 µM.

As for `CC12CC3CC(C)(C1)CC(N)(C3)C2` [MEMANTINE], the AC50 on Cannabinoid receptor 1 was above 30 µM; on Histamine H1 receptor it was above 10 µM; in test [1], above 30 µM; in test [2], above 10 µM; in test [3], above 10 µM; on Glucocorticoid receptor it was above 30 µM.

As to `CN(C)CCCNc1c2ccccc2nc2cccc([N+](=O)[O-])c12` [NITRACRINE], the half-maximal activity concentration (AC50) at Cannabinoid receptor 1 is above 30 µM; at Histamine H1 receptor, 14 µM; in test [1], 6.7 µM; in test [2] it was above 30 µM; in test [3], above 30 µM; on Glucocorticoid receptor, above 30 µM.

With `C#C[C@]1(OC(C)=O)CC[C@H]2[C@@H]3CCC4=C/C(=N/O)CC[C@@H]4[C@H]3CC[C@@]21CC` [NORGESTIMATE], the AC50 is above 30 µM at Cannabinoid receptor 1; above 30 µM on Histamine H1 receptor; above 30 µM in test [1]; above 30 µM in test [2]; above 30 µM in test [3]; 0.041 µM on Glucocorticoid receptor.

Regarding `Clc1ccc2c(N3CCN(CCCN4CCN(c5ccnc6cc(Cl)ccc56)CC4)CC3)ccnc2c1` [PIPERAQUINE], the AC50 (on Cannabinoid receptor 1; at Histamine H1 receptor; in test [1]; in test [2]; in test [3]; on Glucocorticoid receptor) was above 30 µM throughout.

Regarding `CC1(C)S[C@@H]2[C@H](NC(=O)[C@H](N)c3ccccc3)C(=O)N2[C@H]1C(=O)OCOC(=O)[C@@H]1N2C(=O)C[C@H]2S(=O)(=O)C1(C)C` [SULTAMICILLIN], the AC50 (on Cannabinoid receptor 1; on Histamine H1 receptor; in test [1]; in test [3]; at Glucocorticoid receptor) was above 30 µM in each case.

For the compound `CCC(=O)O[C@H]1CC[C@H]2[C@@H]3CCC4=CC(=O)CC[C@]4(C)[C@H]3CC[C@]12C` [TESTOSTERONE PROPIONATE], the AC50 at Cannabinoid receptor 1 was above 30 µM; at Histamine H1 receptor, above 10 µM; in test [1], above 30 µM; in test [2], above 10 µM; in test [3], above 10 µM; at Glucocorticoid receptor, 0.109 µM.

On to `Cc1cccc(N2CC(CO)OC2=O)c1` (configuration not stated) [TOLOXATONE], for which the AC50 (at Cannabinoid receptor 1; on Histamine H1 receptor; in test [1]; in test [2]; in test [3]; at Glucocorticoid receptor) was above 30 µM in each case.

As to `CCC(C)C(CC)C(N)=O` (configuration not stated) [VALNOCTAMIDE], the AC50 (on Cannabinoid receptor 1; at Histamine H1 receptor; in test [1]; in test [2]; in test [3]; at Glucocorticoid receptor) was above 30 µM each time.

Take `CCCC(CCC)C(N)=O` [VALPROMIDE]: the AC50 was above 30 µM on Cannabinoid receptor 1; above 10 µM at Histamine H1 receptor; above 30 µM in test [1]; above 10 µM in test [2]; above 10 µM in test [3]; above 30 µM on Glucocorticoid receptor.

For `CCOC(=O)C1=C[C@]2(CC)CCCN3CCc4c(n1c1ccccc41)[C@@H]32` [VINPOCETINE], the AC50 at Cannabinoid receptor 1 was above 30 µM; on Histamine H1 receptor, above 30 µM; in test [1], above 30 µM; in test [2], above 30 µM; in test [3], 19 µM; on Glucocorticoid receptor, above 30 µM.
